From patent US9593105B2, “Cyclic amines” (H. Lundbeck A/S, priority 2012, dated 2017)

Target: P2X7 receptor (Homo sapiens (Human), UniProt Q99572)
Test: P2X7 FLIPR assay (BzATP-stimulated, Fluo-4 fluorescence) in stably transfected 293 HEK cells
Assay type: cell-based
Experimental: This example illustrates representative assays for use in evaluating the test compounds for antagonist activity. Compounds of the present invention were tested in vitro for their ability to act as antagonists to the P2X7 receptor.
Cells were plated to cell density of approximately 15,000 cells/well in 384-well assay plates (50 μl/well) with 1.5% low serum media (DMEM, 1.5% BCS, 1% L-glut (2 mM), 1% P/S).
Cells were plated to cell density of approximately 15,000 cells/well in 384-well assay plates (50 μl/well) with 1.5% low serum media (DMEM, 1.5% FBS, 1% L-glut (2 mM), 10 mM HEPES, 1% P/S). Cells were plated 24 hours prior to assay. Cells expressing human, rat or mouse P2X7 receptor were assayed in the following manner.
Fluo-4 NW dye mix (Molecular Probes, Inc., Eugene, Oreg., USA) was prepared in buffer (see manufacturer's instructions). Cell plates were removed from the 37° C. incubator, the media discarded and then 30 μL of dye was added to each well. Plates were placed in the 37° C., non-CO2 incubator for 30 minutes and then room temperature for 30 minutes.
Compound mixtures (A) were added to assay plates containing cells and placed at room temperature for 30 minutes, then BzATP (B) was added. Fluorescence was read using the Tetra FLIPR® (Molecular Devices, Inc., Sunnyvale, Calif., USA) and IC50 values were calculated by standard methods to determine antagonist activity.

Sequence of P2X7 receptor (Q99572 whole entry): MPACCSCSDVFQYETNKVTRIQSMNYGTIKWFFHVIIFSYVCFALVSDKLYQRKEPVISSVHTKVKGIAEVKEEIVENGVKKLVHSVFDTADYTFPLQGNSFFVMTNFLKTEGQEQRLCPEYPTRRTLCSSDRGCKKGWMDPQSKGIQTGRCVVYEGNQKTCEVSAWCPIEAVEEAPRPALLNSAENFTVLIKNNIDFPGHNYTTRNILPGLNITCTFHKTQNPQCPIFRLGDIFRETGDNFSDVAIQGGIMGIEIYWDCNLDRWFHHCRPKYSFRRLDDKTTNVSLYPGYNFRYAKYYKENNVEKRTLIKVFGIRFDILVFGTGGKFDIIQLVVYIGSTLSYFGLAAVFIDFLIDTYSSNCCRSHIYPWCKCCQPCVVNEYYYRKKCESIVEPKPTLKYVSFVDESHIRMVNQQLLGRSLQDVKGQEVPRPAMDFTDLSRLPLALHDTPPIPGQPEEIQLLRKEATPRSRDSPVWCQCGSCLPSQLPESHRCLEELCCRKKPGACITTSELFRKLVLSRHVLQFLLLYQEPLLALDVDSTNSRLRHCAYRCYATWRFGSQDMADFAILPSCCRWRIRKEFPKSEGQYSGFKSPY

Row | IC50 | SMILES
1 | 5.8 nM | O=C(NCC(c1cnc(C2CC2)nc1)N1CCC(F)(F)CC1)c1c(Cl)cccc1Cl (single isomer, unassigned; (-)) [(−)2,6-dichloro-N-[2-(2-cyclopropylpyrimidin-5-yl)-2-(4,4-di] [(−)2,6-dichloro-N-(2-(2-cyclopropylpyrimidin-5-yl)-2-(4,4-difluoropiperidin-1-yl)ethyl)benzamide]
2 | 4.3 nM | COc1ccc(C(=O)NCC(c2cnc(C(F)(F)F)nc2)N2CCC(F)(F)CC2)c(Cl)c1 (single isomer, unassigned; (+)) [(+)2-chloro-N-[2-(4,4-difluoro-1-piperidyl)-2-[2-(trifluorom] [(+)2-chloro-4-methoxy-N-(2-(4,4-difluoropiperidin-1-yl)-2-(2-(trifluoromethyl)pyrimidin-5-yl)ethyl)benzamide]
